The results in this text go back to ChEMBL document CHEMBL3763148, “Synthesis, structure elucidation, DNA-PK and PI3K and anti-cancer activity of 8- and 6-aryl-substituted-1-3-benzoxazines” (Eur J Med Chem, 2016).

What is called inhibition is the drop in the measured response relative to a control, in per cent. A higher inhibition goes with a response far below the control. The term IC50 denotes the concentration at which inhibition is half-maximal. Low readings indicate greater potency, high ones weaker potency.

In assay [1] the target is T1, Phosphatidylinositol 4,5-bisphosphate 3-kinase catalytic subunit beta isoform (Homo sapiens, UniProt P42338). The assay is described as follows: Inhibition of PI3Kbeta (unknown origin) at 10 uM incubated for 60 mins by kinase-glo luminescence assay.
Target sequence in this assay (P42338 whole entry, looked up, canonical isoform): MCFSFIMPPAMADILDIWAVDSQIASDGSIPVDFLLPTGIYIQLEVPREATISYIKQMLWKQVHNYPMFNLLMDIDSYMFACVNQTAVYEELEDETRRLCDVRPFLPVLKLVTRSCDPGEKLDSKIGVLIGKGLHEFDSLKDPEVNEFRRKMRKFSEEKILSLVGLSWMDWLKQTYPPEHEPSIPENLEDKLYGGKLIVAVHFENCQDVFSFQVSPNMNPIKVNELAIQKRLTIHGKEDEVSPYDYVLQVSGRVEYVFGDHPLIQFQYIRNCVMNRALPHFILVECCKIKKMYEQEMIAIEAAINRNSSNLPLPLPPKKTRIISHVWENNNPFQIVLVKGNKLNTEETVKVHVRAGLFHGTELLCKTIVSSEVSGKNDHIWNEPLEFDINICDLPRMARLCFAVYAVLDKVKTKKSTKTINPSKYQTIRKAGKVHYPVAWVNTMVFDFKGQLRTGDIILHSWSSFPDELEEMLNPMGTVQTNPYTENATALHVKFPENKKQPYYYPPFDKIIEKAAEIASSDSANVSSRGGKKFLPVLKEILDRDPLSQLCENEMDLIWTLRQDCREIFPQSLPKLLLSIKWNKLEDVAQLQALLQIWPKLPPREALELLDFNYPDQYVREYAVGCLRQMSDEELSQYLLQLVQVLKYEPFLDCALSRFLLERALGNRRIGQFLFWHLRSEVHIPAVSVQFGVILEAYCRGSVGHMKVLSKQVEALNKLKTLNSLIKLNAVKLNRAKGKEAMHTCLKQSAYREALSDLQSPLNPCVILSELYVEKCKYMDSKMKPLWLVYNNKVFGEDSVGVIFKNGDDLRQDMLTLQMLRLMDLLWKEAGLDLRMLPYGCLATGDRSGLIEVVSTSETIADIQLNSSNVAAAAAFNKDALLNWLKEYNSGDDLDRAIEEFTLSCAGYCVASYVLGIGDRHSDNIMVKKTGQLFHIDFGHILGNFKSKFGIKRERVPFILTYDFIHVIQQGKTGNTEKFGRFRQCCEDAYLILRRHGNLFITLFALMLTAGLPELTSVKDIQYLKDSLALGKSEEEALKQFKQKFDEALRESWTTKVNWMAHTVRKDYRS
The target in assay [2] is T2, Phosphatidylinositol 4,5-bisphosphate 3-kinase catalytic subunit alpha isoform (Homo sapiens, UniProt P42336). Briefly: Inhibition of PI3Kalpha (unknown origin) at 10 uM incubated for 60 mins by kinase-glo luminescence assay. On the technique in general: Kinase-Glo reads ATP consumption through a luciferase reaction.
Assay [3] concerns the target T3, DNA-dependent protein kinase catalytic subunit (Homo sapiens, UniProt P78527). Briefly: Inhibition of human DNA-PK using EPPLSQEAFADLWKK as substrate by HTRF assay.
The target in assay [4] is T4, Phosphatidylinositol 4,5-bisphosphate 3-kinase catalytic subunit delta isoform (Homo sapiens, UniProt O00329).
T4 sequence (O00329 whole entry): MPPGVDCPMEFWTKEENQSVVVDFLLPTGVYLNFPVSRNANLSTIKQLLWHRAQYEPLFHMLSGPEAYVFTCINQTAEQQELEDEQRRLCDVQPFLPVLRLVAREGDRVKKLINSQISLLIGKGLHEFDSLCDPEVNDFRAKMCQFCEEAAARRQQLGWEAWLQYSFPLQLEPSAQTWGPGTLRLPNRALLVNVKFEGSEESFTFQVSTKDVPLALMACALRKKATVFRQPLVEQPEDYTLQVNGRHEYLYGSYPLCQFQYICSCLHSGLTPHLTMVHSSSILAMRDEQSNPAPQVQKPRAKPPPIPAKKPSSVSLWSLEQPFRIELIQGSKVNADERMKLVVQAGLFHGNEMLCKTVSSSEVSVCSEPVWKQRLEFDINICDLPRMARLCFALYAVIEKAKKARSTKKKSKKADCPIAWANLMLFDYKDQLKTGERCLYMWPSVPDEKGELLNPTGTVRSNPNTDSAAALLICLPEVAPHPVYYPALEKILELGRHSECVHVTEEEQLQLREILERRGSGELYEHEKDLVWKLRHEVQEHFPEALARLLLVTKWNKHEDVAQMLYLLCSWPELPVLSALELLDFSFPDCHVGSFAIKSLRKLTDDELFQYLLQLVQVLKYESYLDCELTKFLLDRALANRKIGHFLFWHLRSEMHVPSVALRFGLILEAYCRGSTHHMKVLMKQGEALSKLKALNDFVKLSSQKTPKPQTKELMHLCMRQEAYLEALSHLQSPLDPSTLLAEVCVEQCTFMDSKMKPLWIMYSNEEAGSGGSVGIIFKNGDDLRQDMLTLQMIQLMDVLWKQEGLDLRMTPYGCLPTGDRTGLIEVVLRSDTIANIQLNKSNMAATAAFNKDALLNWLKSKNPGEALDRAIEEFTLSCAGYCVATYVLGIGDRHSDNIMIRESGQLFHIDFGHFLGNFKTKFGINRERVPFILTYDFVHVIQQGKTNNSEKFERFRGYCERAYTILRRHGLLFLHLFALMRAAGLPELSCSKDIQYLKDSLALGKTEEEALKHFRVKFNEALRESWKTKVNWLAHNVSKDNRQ
The assay is described as follows: Inhibition of PI3Kdelta (unknown origin) incubated for 60 mins by kinase-glo luminescence assay.

Assay [5] addresses Phosphatidylinositol 4,5-bisphosphate 3-kinase catalytic subunit gamma isoform (Homo sapiens) (UniProt P48736). The assay is described as follows: Inhibition of PI3Kgamma (unknown origin) at 10 uM incubated for 60 mins by kinase-glo luminescence assay.
The target of assay [6] is T5, Phosphatidylinositol 4,5-bisphosphate 3-kinase catalytic subunit delta isoform (Homo sapiens) (UniProt O00329).
T5 sequence (whole entry): T4 sequence (O00329 whole entry)
The assay is described as follows: Inhibition of PI3Kdelta (unknown origin) at 10 uM incubated for 60 mins by kinase-glo luminescence assay.

Assay [7] concerns the target T3, DNA-dependent protein kinase catalytic subunit. The assay is described as follows: Inhibition of human DNA-PK using EPPLSQEAFADLWKK as substrate at 10 uM by HTRF assay. (In general: In TR-FRET formats the signal depends on donor and acceptor labels being close together.)
Assay [8] concerns the target T1, Phosphatidylinositol 4,5-bisphosphate 3-kinase catalytic subunit beta isoform. The assay is described as follows: Inhibition of PI3Kbeta (unknown origin) incubated for 60 mins by kinase-glo luminescence assay.
Target sequence in this assay (P42338 whole entry, canonical isoform): as the sequence (P42338 whole entry, looked up, canonical isoform) above
Assay [9] addresses T2, Phosphatidylinositol 4,5-bisphosphate 3-kinase catalytic subunit alpha isoform. The assay is described as follows: Inhibition of PI3Kalpha (unknown origin) incubated for 60 mins by kinase-glo luminescence assay.

Sequence of Phosphatidylinositol 4,5-bisphosphate 3-kinase catalytic subunit gamma isoform (Homo sapiens) (P48736 whole entry, looked up, canonical isoform): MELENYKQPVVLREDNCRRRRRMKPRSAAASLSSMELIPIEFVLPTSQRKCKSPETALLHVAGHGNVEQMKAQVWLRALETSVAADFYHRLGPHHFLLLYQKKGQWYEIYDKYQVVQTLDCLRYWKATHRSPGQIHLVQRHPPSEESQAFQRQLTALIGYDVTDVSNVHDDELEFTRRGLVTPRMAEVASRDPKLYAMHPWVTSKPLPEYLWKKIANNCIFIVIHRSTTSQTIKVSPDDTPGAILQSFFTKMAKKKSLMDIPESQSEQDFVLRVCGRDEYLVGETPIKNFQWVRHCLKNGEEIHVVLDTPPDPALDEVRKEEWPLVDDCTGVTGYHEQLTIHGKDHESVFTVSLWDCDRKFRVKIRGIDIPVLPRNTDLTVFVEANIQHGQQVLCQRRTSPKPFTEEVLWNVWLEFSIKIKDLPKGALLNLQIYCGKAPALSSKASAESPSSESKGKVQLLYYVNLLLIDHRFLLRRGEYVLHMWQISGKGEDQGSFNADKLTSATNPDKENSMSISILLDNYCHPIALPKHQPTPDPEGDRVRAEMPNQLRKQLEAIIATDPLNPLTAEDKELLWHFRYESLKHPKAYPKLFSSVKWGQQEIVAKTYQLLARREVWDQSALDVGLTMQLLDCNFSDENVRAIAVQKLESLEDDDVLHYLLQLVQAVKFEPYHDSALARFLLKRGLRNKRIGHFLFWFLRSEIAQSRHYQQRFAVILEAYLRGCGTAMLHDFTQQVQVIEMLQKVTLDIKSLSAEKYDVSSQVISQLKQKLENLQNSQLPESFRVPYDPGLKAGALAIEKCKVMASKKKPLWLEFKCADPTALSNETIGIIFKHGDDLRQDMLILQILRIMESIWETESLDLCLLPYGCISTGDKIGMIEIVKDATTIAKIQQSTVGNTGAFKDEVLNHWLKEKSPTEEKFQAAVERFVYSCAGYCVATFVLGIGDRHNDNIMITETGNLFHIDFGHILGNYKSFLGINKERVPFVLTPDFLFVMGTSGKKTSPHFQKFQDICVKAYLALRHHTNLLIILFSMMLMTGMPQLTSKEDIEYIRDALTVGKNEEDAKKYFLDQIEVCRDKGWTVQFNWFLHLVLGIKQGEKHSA
T2 sequence (P42336 whole entry, canonical isoform): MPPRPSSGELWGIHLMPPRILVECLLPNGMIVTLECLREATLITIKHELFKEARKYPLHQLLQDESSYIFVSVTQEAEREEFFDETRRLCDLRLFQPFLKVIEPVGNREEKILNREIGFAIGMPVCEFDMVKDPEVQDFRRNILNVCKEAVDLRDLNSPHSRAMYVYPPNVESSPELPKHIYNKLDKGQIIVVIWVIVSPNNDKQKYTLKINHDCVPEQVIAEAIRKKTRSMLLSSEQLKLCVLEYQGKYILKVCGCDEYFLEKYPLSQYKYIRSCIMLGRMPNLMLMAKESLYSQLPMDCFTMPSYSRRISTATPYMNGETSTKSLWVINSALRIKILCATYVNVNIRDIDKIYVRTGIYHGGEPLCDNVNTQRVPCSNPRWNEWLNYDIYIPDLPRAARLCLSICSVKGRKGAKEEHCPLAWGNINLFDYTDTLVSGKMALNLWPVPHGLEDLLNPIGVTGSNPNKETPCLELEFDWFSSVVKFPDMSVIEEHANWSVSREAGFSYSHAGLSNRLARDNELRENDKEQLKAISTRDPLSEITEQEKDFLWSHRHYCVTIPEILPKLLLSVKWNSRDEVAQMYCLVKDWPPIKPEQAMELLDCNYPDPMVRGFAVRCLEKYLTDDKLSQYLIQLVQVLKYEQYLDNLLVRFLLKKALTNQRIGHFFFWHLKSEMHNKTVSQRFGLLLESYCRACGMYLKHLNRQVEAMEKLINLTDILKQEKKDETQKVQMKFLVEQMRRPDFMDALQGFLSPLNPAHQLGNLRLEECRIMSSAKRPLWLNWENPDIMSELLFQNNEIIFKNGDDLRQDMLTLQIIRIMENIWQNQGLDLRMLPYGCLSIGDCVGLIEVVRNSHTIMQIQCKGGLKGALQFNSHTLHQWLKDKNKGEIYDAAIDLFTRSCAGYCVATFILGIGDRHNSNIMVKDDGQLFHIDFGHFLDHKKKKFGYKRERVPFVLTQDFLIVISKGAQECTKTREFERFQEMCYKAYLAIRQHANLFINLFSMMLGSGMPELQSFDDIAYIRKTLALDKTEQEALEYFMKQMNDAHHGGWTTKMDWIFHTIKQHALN

For the molecule `O=c1nc(N2CCOCC2)oc2c(-c3cccs3)cc(Cl)cc12`, the inhibition in assay [1] was found to be 0%; in assay [2], 42%; in [5], 0%. Also, the IC50 in [3] is 6.05 µM; in assay [4], 10 µM.
`O=c1nc(N2CCOCC2)oc2c(-c3cc4ccccc4s3)cc(Cl)cc12`: the inhibition was found to be 16% in assay [6], 15% in assay [1], 35% in assay [2] and 14% in [5]. Also, in assay [3], the IC50 amounted to 5.77 µM.
As to `COc1ccc(-c2ccc3oc(N4CCOCC4)nc(=O)c3c2)cc1`, the inhibition in assay [7] is 8%; in assay [6] it was 0%; in [1], 17%; in assay [2], 7%; in [5], 0%.
As for `O=c1nc(N2CCOCC2)oc2c(-c3ccc(CO)cc3)cccc12`, the half-inhibitory concentration (IC50) in assay [8] came to 3.2 µM; in assay [9], 10 µM; in assay [3] it was 15.7 µM; in assay [4], 9 µM. Besides, the inhibition in [5] was 31%.
As for `O=c1nc(N2CCOCC2)oc2ccc(-c3ccsc3)cc12`, in assay [7], the inhibition worked out at 21%.
As to `COc1ccc(-c2cc(Cl)cc3c(=O)nc(N4CCOCC4)oc23)cc1`, the figures for the inhibition in assay [1], in [2] and in assay [5] were 0%, 16% and 0%, respectively. For the same molecule, the concentration for half-maximal inhibition (IC50) in assay [3] worked out at 12.3 µM; in assay [4], 2.6 µM.
On to `O=c1nc(N2CCOCC2)oc2c(-c3ccc(Cl)cc3)cccc12`, for which the inhibition in assay [1] turned out to be 34%; in assay [5] it was 16%. Further, the values for the IC50 in [9], in [3] and in [4] were over 10 µM, 10.9 µM and 10 µM, respectively.
With `O=c1nc(N2CCOCC2)oc2ccc(-c3ccc(Cl)cc3)cc12`, the inhibition in assay [7] turned out to be 7%; in [6], 0%; in assay [1], 0%; in assay [2], 10%; in [5], 10%.
Regarding `O=c1nc(N2CCOCC2)oc2ccc(-c3cc4ccccc4s3)cc12`, the inhibition in assay [7] is 0%; in [6], 0%; in [1], 20%; in assay [2], 3%; in assay [5] it was 3%.
Take `O=c1nc(N2CCOCC2)oc2c(-c3cccc4c3sc3ccccc34)cc(Cl)cc12`: the inhibition was found to be 36% in assay [6], 59% in assay [1], 0% in assay [2] and 1% in assay [5]. Further, half-maximal inhibition in assay [3] (IC50) was put at 0.564 µM.
`O=c1nc(N2CCOCC2)oc2c(-c3cc4ccccc4s3)cccc12`: the inhibition is 15% in [1] and 17% in assay [5]. In addition, the IC50 in assay [9] was 10 µM; in assay [3] it was 2.12 µM; in assay [4] it was 3.7 µM.
In the case of `O=c1nc(N2CCOCC2)oc2ccc(-c3cccc4ccccc34)cc12`, the inhibition in assay [7] was determined as 4%; in assay [6] it was 0%; in assay [1] it was 0%; in [2], 10%; in assay [5], 4%.
Regarding `Nc1cccc(-c2ccc3oc(N4CCOCC4)nc(=O)c3c2)c1`, the inhibition in assay [7] was found to be 7%.
On to `O=c1nc(N2CCOCC2)oc2ccc(/C=C/c3ccccc3)cc12`, for which the inhibition in assay [7] amounted to 23%; in assay [6], 0%; in assay [1], 29%; in assay [2], 3%; in assay [5], 4%.
The corresponding values for `O=c1nc(N2CCOCC2)oc2ccc(-c3ccc(CO)cc3)cc12` are 11%, 0%, 0%, 7% and 0%.
The corresponding values for `O=c1nc(N2CCOCC2)oc2ccc(-c3cccnc3)cc12` are 6%, 3%, 36%, 11% and 0%.
With `O=c1nc(N2CCOCC2)oc2ccc(-c3ccccc3)cc12`, the inhibition amounted to 1% in [7]; 0% in [6]; 0% in assay [1]; 2% in [2]; 9% in [5].
`Nc1cccc(-c2cccc3c(=O)nc(N4CCOCC4)oc23)c1`: the IC50 in assay [8] came to 10 µM; in [3] it was 63.5 µM. In addition, the inhibition in assay [6] is 4%; in assay [2] it was 13%; in [5] it was 0%.
Turning to `O=c1nc(N2CCOCC2)oc2ccc(-c3cccc4c3oc3ccccc34)cc12`, the inhibition was 12% in assay [7]; 0% in [6]; 6% in [1]; 5% in assay [2]; 0% in assay [5].
Regarding `O=c1cc(N2CCOCC2)oc2c(-c3ccccc3)cccc12` [LY-294002], the IC50 in assay [3] stood at 0.3 µM; in assay [4] it was 0.95 µM.
Consider `O=c1nc(N2CCOCC2)oc2ccc(-c3cccc(-c4ccccc4)c3)cc12`, for which the inhibition stood at 7% in [7]; 0% in [6]; 13% in [1]; 11% in [2]; 0% in assay [5].
With `NC(=O)c1ccc(-c2ccc3oc(N4CCOCC4)nc(=O)c3c2)cc1`, the inhibition in assay [7] stood at 8%.
In the case of `O=c1nc(N2CCOCC2)oc2c(-c3cccnc3)cccc12`, the IC50 in [8] is over 10 µM; in [3], 78.4 µM. Also, the figures for the inhibition in assay [6], in [2] and in [5] were 37%, 26% and 24%, respectively.
Take `O=c1nc(N2CCOCC2)oc2ccc(-c3cccs3)cc12`: the inhibition in assay [7] came out at 24%.
